Activity calls are given as the source filed them. The calls are words filed in the database; no cut-off is given here.
Experiments:
[1] = Binding affinity to GST-tagged Calcineurin (unknown origin) incubated for 1 hr by fluorescence polarization assay; design: species or system Homo sapiens
[2] = (§1) Binding affinity to GST-tagged Calcineurin (unknown origin) assessed as reduction in binding of peptide-14 incubated for 1 hr by fluorescence polarization assay; design: species or system Homo sapiens
Homo sapiens = organism: Homo sapiens; assay: as §1
[3] = Stability in 25% human serum assessed as compound degradation at 5 uM at 37 degC incubated for 24 hrs by HPLC analysis; assay type: ADME, cell-free; settings: 25% human serum, read-out: Drug degradation
[4] = Solubility in PBS containing 5% DMSO at pH 7.4 incubated for 1 hr; assay type: physicochemical
[5] = Drug uptake in human HeLa cells at 5 uM incubated for 2 hrs using naphthofluorescein-labelled compound by live-cell confocal microscopic analysis; assay type: ADME, cell-based
HeLa = assay: Toxicity in human HeLa cells assessed as reduction in cell viability up to 25 uM incubated for 72 hrs by MTT assay; assay type: cell-based
NCI-H441 = assay: Toxicity in human NCI-H441 cells assessed as reduction in cell viability up to 25 uM incubated for 72 hrs by MTT assay; assay type: cell-based; settings: nci-h441, 72 h
Macrophage [6] = assay: Inhibition of calcineurin-NFATc3 interaction in mouse lung macrophages assessed as reduction in LPS-induced TNFalpha production at 0.1 to 10 uM pre-incubated 4 hrs before LPS stimulation for 8 hrs by ELISA; assay type: tissue-based; settings: dose microM 0.1-10, time 12.0 hrs
Macrophage [7] = assay: Inhibition of calcineurin-NFATc3 interaction in mouse lung macrophages assessed as reduction in LPS-induced IL6 production at 0.1 to 10 uM pre-incubated 4 hrs before LPS stimulation for 8 hrs by ELISA; assay type: tissue-based; settings: dose microM 0.1-10, time 12.0 hrs
[8] = Tmax in BALF of C57BL/6 mouse at 5 mg/kg using TMR-labeled compound instilled into both nostrils by flow cytometry; assay type: ADME, organism-based, Bronchoalveolar lavage; settings: inhaled or intranasal
[9] = Drug localization in total leukocytes of C57BL/6 mouse assessed as TMR-positive total leukocytes at 5 mg/kg using TMR-labeled compound instilled into both nostrils measured after 4 hrs by flow cytometry; assay type: ADME, organism-based, Leucocyte; settings: in vivo, inhaled_or_intranasal
[10] = Drug localization in total leukocytes of C57BL/6 mouse assessed as TMR-positive total leukocytes at 5 mg/kg using TMR-labeled compound instilled into both nostrils measured after 24 hrs by flow cytometry; assay type: ADME, organism-based, Leucocyte; settings: in vivo, inhaled_or_intranasal
[11] = Drug localization in plasma of C57BL/6 mouse at 5 mg/kg using TMR-labeled compound instilled into both nostrils measured after 24 hrs by flow cytometry; assay type: ADME, organism-based; settings: in vivo, inhaled_or_intranasal
[12] = Toxicity in of C57BL/6 mouse assessed as effect on lactate dehydrogenase level in total lung cells at 5 mg/kg using TMR-labeled compound instilled into both nostrils measured after 24 hrs by Cyto-tox 96 assay; assay type: organism-based; settings: in vivo, inhaled_or_intranasal
[13] = Toxicity in of C57BL/6 mouse assessed as induction of neutrophil infiltration at 5 mg/kg using TMR-labeled compound instilled into both nostrils measured after 24 hrs by Hema-3.0 staining based assay; assay type: organism-based; settings: in vivo, inhaled_or_intranasal
Mus musculus [14] = assay: Anti-inflammatory activity in BALB/c mouse model of LPS-induced ALI assessed as reduction in LPS-induced TNFalpha in BALF at 5 mg/kg dosed via intranasal insuffIation pre-treated 2 hrs before LPS stimulation for 16 hrs; assay type: functional, organism-based; settings: dose mg/kg 5-10, time 18.0 hrs
Mus musculus [15] = assay: Anti-inflammatory activity in BALB/c mouse model of LPS-induced ALI assessed as reduction in LPS-induced IL6 in BALF at 5 mg/kg dosed via intranasal insuffIation pre-treated 2 hrs before LPS stimulation for 16 hrs; assay type: functional, organism-based; settings: dose mg/kg 5-10, time 18.0 hrs
Mus musculus [16] = assay: Anti-inflammatory activity in BALB/c mouse model of LPS-induced ALI assessed as reduction in LPS-induced extravasated BALF protein in BALF at 5 mg/kg dosed via intranasal insuffIation pre-treated 2 hrs before LPS stimulation for 16 hrs; assay type: functional, organism-based; settings: dose mg/kg 5-10, time 18.0 hrs
Mus musculus [17] = assay: Anti-inflammatory activity in BALB/c mouse model of LPS-induced ALI assessed as reduction in LPS-induced TNFalpha in plasma at 5 mg/kg dosed via intranasal insuffIation pre-treated 2 hrs before LPS stimulation for 16 hrs; assay type: functional, organism-based; settings: dose mg/kg 5-10, time 18.0 hrs
Mus musculus [18] = assay: Anti-inflammatory activity in BALB/c mouse model of LPS-induced ALI assessed as reduction in LPS-induced IL6 in plasma at 5 mg/kg dosed via intranasal insuffIation pre-treated 2 hrs before LPS stimulation for 16 hrs; assay type: functional, organism-based; settings: dose mg/kg 5-10, time 18.0 hrs
Mus musculus [19] = assay: Anti-inflammatory activity in BALB/c mouse model of LPS-induced ALI assessed as reduction in lung wet-to-dry ratios at 5 mg/kg dosed via intranasal insuffIation pre-treated 2 hrs before LPS stimulation for 16 hrs; assay type: functional, organism-based; settings: dose mg/kg 5-10, time 18.0 hrs
Mus musculus [20] = assay: Anti-inflammatory activity in BALB/c mouse model of LPS-induced ALI assessed as reduction in number of neutrophils BALF at 5 mg/kg dosed via intranasal insuffIation pre-treated 2 hrs before LPS stimulation for 16 hrs; assay type: functional, organism-based; settings: dose mg/kg 5-10, time 18.0 hrs
Mus musculus [21] = assay: Anti-inflammatory activity in BALB/c mouse model of LPS-induced ALI assessed as reduction in LPS-induced TNFalpha in BALF at 10 mg/kg dosed via intranasal insuffIation pre-treated 2 hrs before LPS stimulation for 16 hrs; assay type: functional, organism-based; settings: time 18.0 hrs
Mus musculus [22] = assay: Anti-inflammatory activity in BALB/c mouse model of LPS-induced ALI assessed as reduction in LPS-induced IL6 in BALF at 10 mg/kg dosed via intranasal insuffIation pre-treated 2 hrs before LPS stimulation for 16 hrs; assay type: functional, organism-based; settings: time 18.0 hrs
Mus musculus [23] = assay: Anti-inflammatory activity in BALB/c mouse model of LPS-induced ALI assessed as reduction in LPS-induced extravasated BALF protein in BALF at 10 mg/kg dosed via intranasal insuffIation pre-treated 2 hrs before LPS stimulation for 16 hrs; assay type: functional, organism-based; settings: time 18.0 hrs
Mus musculus [24] = assay: Anti-inflammatory activity in BALB/c mouse model of LPS-induced ALI assessed as reduction in LPS-induced TNFalpha in plasma at 10 mg/kg dosed via intranasal insuffIation pre-treated 2 hrs before LPS stimulation for 16 hrs; assay type: functional, organism-based; settings: time 18.0 hrs
Mus musculus [25] = assay: Anti-inflammatory activity in BALB/c mouse model of LPS-induced ALI assessed as reduction in lung wet-to-dry ratios at 10 mg/kg dosed via intranasal insuffIation pre-treated 2 hrs before LPS stimulation for 16 hrs; assay type: functional, organism-based; settings: time 18.0 hrs
Mus musculus [26] = assay: Anti-inflammatory activity in BALB/c mouse model of LPS-induced ALI assessed as reduction in number of neutrophils BALF at 10 mg/kg dosed via intranasal insuffIation pre-treated 2 hrs before LPS stimulation for 16 hrs; assay type: functional, organism-based; settings: time 18.0 hrs
[27] = Toxicity in C57BL/6 mouse assessed as effect on physical appearance at 50 mg/kg, ip; assay type: organism-based; settings: in vivo
[28] = Toxicity in C57BL/6 mouse assessed as effect on body temperature at 50 mg/kg, ip; assay type: organism-based; settings: in vivo
[29] = Toxicity in C57BL/6 mouse assessed as effect on self grooming at 50 mg/kg, ip; assay type: organism-based; settings: in vivo
[30] = Toxicity in C57BL/6 mouse assessed as effect on respiratory function measured by pulmonary arterial oxygen saturation at 50 mg/kg, ip; assay type: organism-based; settings: in vivo
[31] = Toxicity in C57BL/6 mouse assessed as induction of body weight loss at 50 mg/kg, ip measured during 1 weeks; assay type: organism-based; settings: in vivo, 168 h
[32] = Toxicity in C57BL/6 mouse assessed as efect on animal growth rates at 50 mg/kg, ip measured during 1 weeks; assay type: organism-based; settings: in vivo, 168 h
[33] = Toxicity in C57BL/6 mouse assessed as induction of body weight loss at 10 mg/kg dosed via intranasal insuffIation measured during 1 weeks; assay type: organism-based; settings: in vivo, inhaled_or_intranasal, 168 h
[34] = Toxicity in C57BL/6 mouse assessed as effect on animal growth rates at 10 mg/kg dosed via intranasal insuffIation measured during 1 weeks; assay type: organism-based; settings: in vivo, inhaled_or_intranasal, 168 h
[35] = Toxicity in mouse lung macrophages cells assessed as reduction in cell viability up to 25 uM incubated for 72 hrs by MTT assay; assay type: tissue-based; settings: macrophage
Macrophage [36] = assay: Inhibition of calcineurin-NFATc3 interaction in mouse bone marrow-derived macrophages assessed as reduction in LPS-induced NFATc3 nuclear translocation at 1 uM pre-incubated before LPS stimulation for 1 hr using biotinylated compound by immunofluorescence staining assay

For `CC[C@H](C)[C@H](NC(=O)[C@@H](NC(=O)c1cccc(Cl)c1Cl)C(C)(C)C)C(=O)N[C@H](C(=O)N[C@H](C(=O)N[C@H](C(=O)N[C@@H](CCC(N)=O)C(=O)N[C@@H](Cc1cnc[nH]1)C(=O)N[C@@H](CC(C)C)C(=O)N[C@@H](CO)C(=O)NCCC(=O)N[C@@H](CCCCNC(=O)CC[C@@H]1NC(=O)[C@@H](CCCNC(=N)N)NC(=O)[C@H](CCCNC(=N)N)NC(=O)[C@@H](CCCNC(=N)N)NC(=O)[C@H](CCCNC(=N)N)NC(=O)[C@H](Cc2ccc3ccccc3c2)NC(=O)[C@@H](Cc2ccccc2)NC1=O)C(N)=O)[C@H](C)O)[C@@H](C)CC)C(C)(C)C`, the Kd [1] was 75 nM, the IC50 [2] was 630 nM and the inhibition (Homo sapiens) was “Dose-dependent effect”. The metabolised at 24 h, 5 µM [3] was < 10%, the solubility kinetic at 1 h [4] was ≥ 100 µM and the Drug uptake [5] was “Active”. The Activity (HeLa) was “Non-Toxic”, the Activity (NCI-H441) was “Non-Toxic” and the inhibition (Macrophage [6]; DISRUPTING AGENT) was “Dose-dependent effect”. The inhibition (Macrophage [6]) was 17%, the inhibition (Macrophage [7]; DISRUPTING AGENT) was “Dose-dependent effect” and the inhibition (Macrophage [7]) was 22%. For the same compound, the Tmax [8] was 2 h, the Drug uptake [9] was 80% and the Drug uptake [10] was “Not Active”. For the same compound, the Drug uptake [11] was “Not Active”, the Activity [12] was “Non-Toxic” and the Activity [13] was “Non-Toxic”. The Activity (Mus musculus [14]) was “inactive”, the Activity (Mus musculus [15]) was “inactive” and the Activity (Mus musculus [16]) was “inactive”. For the same compound, the Activity (Mus musculus [17]) was “inactive”, the Activity (Mus musculus [18]) was “inactive” and the Activity (Mus musculus [19]) was “inactive”. For the same compound, the Activity (Mus musculus [20]) was “inactive”, the Activity (Mus musculus [21]) was “Active” and the Activity (Mus musculus [22]) was “Active”. The Activity (Mus musculus [23]) was “Active”, the Activity (Mus musculus [24]) was “Active” and the Activity (Mus musculus [25]) was “Active”. The Activity (Mus musculus [26]) was “Active”, the Activity [27] was “Non-Toxic” and the Activity [28] was “Non-Toxic”. The Activity [29] was “Non-Toxic”, the Activity [30] was “Non-Toxic” and the Activity [31] was “Non-Toxic”. For the same compound, the Activity [32] was “Non-Toxic”, the Activity [33] was “Non-Toxic” and the Activity [34] was “Non-Toxic”. For the same compound, the Activity [35] was “Non-Toxic” and the inhibition (Macrophage [36]) was “Active”.
